Each block holds one compound with its values, some of them ahead of it.
Biological target: T1, Axl (Homo sapiens, UniProt P30530)
T1 construct: endogenous in cells; host or cells: HeLa cells
T1 sequence (P30530 26-894): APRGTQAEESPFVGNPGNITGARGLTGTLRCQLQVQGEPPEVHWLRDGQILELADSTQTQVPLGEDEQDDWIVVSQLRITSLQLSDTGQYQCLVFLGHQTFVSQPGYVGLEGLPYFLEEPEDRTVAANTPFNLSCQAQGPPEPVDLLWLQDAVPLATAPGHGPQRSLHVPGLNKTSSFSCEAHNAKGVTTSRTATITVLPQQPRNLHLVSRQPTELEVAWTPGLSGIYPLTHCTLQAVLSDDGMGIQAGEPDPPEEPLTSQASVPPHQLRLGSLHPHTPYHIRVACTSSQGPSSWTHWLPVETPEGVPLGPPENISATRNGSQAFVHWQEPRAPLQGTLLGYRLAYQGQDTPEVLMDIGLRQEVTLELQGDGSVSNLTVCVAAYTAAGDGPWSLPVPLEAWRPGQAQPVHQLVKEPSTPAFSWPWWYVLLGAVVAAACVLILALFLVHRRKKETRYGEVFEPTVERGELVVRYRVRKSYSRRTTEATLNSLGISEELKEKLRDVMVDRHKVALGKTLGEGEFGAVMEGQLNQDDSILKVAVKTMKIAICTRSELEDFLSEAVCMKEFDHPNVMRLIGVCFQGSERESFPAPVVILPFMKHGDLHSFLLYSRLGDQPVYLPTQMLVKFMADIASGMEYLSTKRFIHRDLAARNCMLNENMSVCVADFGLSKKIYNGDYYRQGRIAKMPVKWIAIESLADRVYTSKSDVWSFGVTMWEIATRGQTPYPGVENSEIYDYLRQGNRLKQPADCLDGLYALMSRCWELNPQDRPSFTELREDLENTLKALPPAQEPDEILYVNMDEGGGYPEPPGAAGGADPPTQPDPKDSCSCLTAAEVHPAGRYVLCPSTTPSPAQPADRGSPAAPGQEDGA
Test: Phospho-Akt in-cell Western assay
Type: cell-based
Conditions: Hela cells, Axl antibody cross-linking stimulation, phospho-Akt readout
Method: Phospho-Akt in-Cell Western Assay
The compounds of the invention were tested in the following assay for their ability to inhibit Axl activity.
• Cell culture plate: 96 well assay plate (Corning 3610), white, clear bottom, tissue-culture treated. • Cells: Hela cells. • Starvation medium: For Axl stimulation: 0.5% FCS (fetal calf serum) in DMEM, plus Axl/Fc (extracellular domain of AXL fused to immunoglobulin Fc region) (R&D, 154-AL) 500 ng/mL. • For EGF (epidermal growth factor) stimulation: 0.5% FCS in DMEM (Dulbecco's modified Eagles medium). • Poly-L-Lysine 0.01% solution (the working solution): 10 μg/ml, dilute In PBS (phosphate buffered saline). • Axl antibody cross-linking: • 1st: Mouse anti-Axl (R&D, MAB154). • 2nd: Biotin-SP-conjugated AffiniPure goat anti-mouse IgG (H+L) (Jackson ImmunoResearch #115-065-003). • Fixing buffer: 4% formaldehyde in PBS. • Wash buffer: 0.1% TritonX-100 in PBS. • Quenching buffer: 3% H2O2, 0.1% Azide in wash buffer, Azide and hydrogen peroxide (H2O2) are added fresh. • Blocking buffer: 5% BSA in TBST (tris buffered saline plus 0.1% Tween 20). • Primary antibody: Rabbit anti-human Phospho-Akt antibody (Cell Signaling 9271): 1×250 diluted in blocking buffer. • Secondary antibody: HRP (horse radish peroxidase)-conjugated Goat anti-Rabbit secondary, stock solution: Jackson ImmunoResearch (Goat anti-Rabbit HRP, #111-035-144) 1:1 diluted in glycerol, store at −20° C. The working solution: 1×2000 dilution of stock in blocking buffer. • Chemiluminescent working solution (Pierce, 37030): SuperSignal ELISA (enzyme linked immunosorbant assay) Pico Chemiluminescent substrate. • Crystal Violet solution: Stock: 2.5% Crystal violet in methanol, filtered and kept at ambient temperature. The working solution: dilute the stock 1:20 with PBS immediately before use. • 10% SDS: working solution: 5% SDS (sodium dodecylsulfate), diluted in PBS Methods: Day 1:
A 96 well TC (tissue culture treated) plate was coated with 10 μg/mL poly-L-Lysine at 37° C. for 30 min, washed twice with PBS, and air-dried for 5 minutes before cells were added. Hela cells were seeded at 10,000 cells/well and the cells were starved in 100 μL starvation medium containing Axl/Fc for 24 hrs.
The cells were pre-treated with test compounds by adding 100 μL of 2× test compound to the starvation medium on the cells. The cells were incubated at 37° C. for 1 hr before stimulation.
The cells were stimulated by Axl-antibody cross-linking as follows: A 5×1st/2nd Axl antibody mixture was made (37.5 μg/mL 1st/100 μg/mL 2nd) in starvation medium and nutated at 4° C. with thorough mixing for 1-2 hours for clustering. The resulting mix was warmed to 37° C. 50 μL of 5× Axl 1st/2nd of antibody cluster was added to the cells and the cells were incubated at 37° C. for 5 min.
After 5 minutes stimulation, the plate was flicked to remove medium and the plate was tapped onto paper towels. Formaldehyde (4.0% in PBS, 100 μL) was added to fix the cells and the cells were incubated at ambient temperature for 20 min without shaking.
The cells were washed with a plate washer buffer to remove the formaldehyde solution. The plate was flicked to removed excess wash buffer and tapped onto paper towels. Quenching buffer (100 μL) was added to each well and the cells were incubated at ambient temperature for 20 minutes without shaking.
The cells were washed with a plate washer buffer to remove the quenching buffer. Blocking buffer (100 μL) was added and the cells were incubated at ambient temperature for at least an hour with gentle shaking.
The cells were washed with a plate washer buffer and diluted primary antibody (50 μL) was added to each well (blocking buffer was added to the negative control wells instead). The plates were incubated overnight at 4° C. with gentle shaking.
The wash buffer was removed, diluted secondary antibody (100 μL) was added, and the cells were incubated at ambient temperature for 1 hour with gentle shaking. […]

SMILES: CN(C)CC(=O)NC1CCc2ncc(Nc3nc(N)n(-c4cc(-c5ccccc5)c5c(n4)C4CCN5CC4)n3)cc2C1 (centres unmarked) [Compound 3, 1-(1,4-ethano-8-phenyl-1,2,3,4-tetrahydro-1,5-naphthyridin-6-yl)-N^3-(6-[(((dimethyl)amino)methyl)carbonylamino]-5,6,7,8-tetrahydroquinoline-3-yl)-1H-1,2,4-triazole-3,5-diamine]
IC50 (Table 1, formula (Ia)): < 1 µM

SMILES: CC(C)N[C@H]1CCc2ccc(Nc3nc(N)n(-c4cc(-c5ccccc5)c5c(n4)C4CCN5CC4)n3)cc2CC1 [Compound 37, (7S)-1-(1,4-ethano-8-phenyl-1,2,3,4-tetrahydro-1,5-naphthyridin-6-yl)-N^3-(7-(isopropylamino)-6,7,8,9-tetrahydro-5H-benzo[7]annulene-2-yl)-1H-1,2,4-triazole-3,5-diamine]
IC50 (Table 4, formula (III)): < 1 µM

SMILES: CN(C)[C@H]1CCc2ccc(Nc3nc(N)n(-c4cc(-c5ccccc5)c5c(n4)C4CCN5CC4)n3)cc2CC1 [Compound 36, (7S)-1-(1,4-ethano-8-phenyl-1,2,3,4-tetrahydro-1,5-naphthyridin-6-yl)-N^3-(7-(dimethylamino)-6,7,8,9-tetrahydro-5H-benzo[7]annulene-2-yl)-1H-1,2,4-triazole-3,5-diamine]
IC50 (Table 4, formula (III)): > 20 µM

SMILES: Nc1nc(Nc2cnc3c(c2)CC(N)CC3)nn1-c1cc(-c2ccccc2)c2c(n1)C1CCN2CC1 (centres unmarked) [Compound 1, 1-(1,4-ethano-8-phenyl-1,2,3,4-tetrahydro-1,5-naphthyridin-6-yl)-N^3-(6-amino-5,6,7,8-tetrahydroquinoline-3-yl)-1H-1,2,4-triazole-3,5-diamine]
IC50 (Table 1, formula (Ia)): < 1 µM

SMILES: Nc1nc(Nc2ccc3c(c2)CC[C@@H](N)CC3)nn1-c1cc(-c2ccccc2)c2c(n1)C1CCN2CC1 [Compound 26, (7S)-1-(1,4-ethano-8-phenyl-1,2,3,4-tetrahydro-1,5-naphthyridin-6-yl)-N^3-(7-amino-6,7,8,9-tetrahydro-5H-benzo[7]annulene-2-yl)-1H-1,2,4-triazole-3,5-diamine]
IC50 (Table 4, formula (III)): < 1 µM

SMILES: CN(C)CC(=O)N1CCc2ncc(Nc3nc(N)n(-c4cc(-c5ccccc5)c5c(n4)C4CCN5CC4)n3)cc2C1 [Compound 4, 1-(1,4-ethano-8-phenyl-1,2,3,4-tetrahydro-1,5-naphthyridin-6-yl)-N^3-(6-[((dimethyl)amino)methylcarbonyl]-5,6,7,8-tetrahydro-1,6-naphthyridine-3-yl)-1H-1,2,4-triazole-3,5-diamine]
IC50 (Table 2, formula (Ib)): < 1 µM

Second part, the compound after the results:

IC50 (Table 8, formula (VI)): < 1 µM
SMILES: Nc1nc(Nc2ccc3c(c2)CCC(N2CCCC2)CC3)nn1-c1nnc(-c2ccccc2)c2c1C1CCC2CC1 (centres unmarked) [Compound 28, 1-(4-phenyl-5,8-ethano-5,6,7,8-tetrahydrophthalazine-1-yl)-N^3-(7-(pyrrolidin-1-yl)-6,7,8,9-tetrahydro-5H-benzo[7]annulene-2-yl)-1H-1,2,4-triazole-3,5-diamine]

IC50 (Table 5, formula (IVa)): 1 to 10 µM
SMILES: Cc1cccc(-c2nnc(-n3nc(Nc4ccc(N5CCC(N6CCCC6)CC5)c(F)c4)nc3N)c3c2C2CCC3CC2)c1 [Compound 19, 1-(4-(3-methylphenyl)-5,8-ethano-5,6,7,8-tetrahydrophthalazine-1-yl)-N^3-(4-(4-(pyrrolidin-1-yl)piperidinyl)-3-fluorophenyl)-1H-1,2,4-triazole-3,5-diamine]

IC50 (Table 9, formula (VII)): < 1 µM
SMILES: Nc1nc(Nc2ccc(N3CCC(N4CCCC4)CC3)c(F)c2)nn1-c1nc2c(c(-c3ccccc3)n1)CCCC2 [Compound 42, 1-(4-phenyl-5,6,7,8-tetrahydroquinazoline-2-yl)-N^3-(4-(4-(pyrrolidin-1-yl)piperidinyl)-3-fluorophenyl)-1H-1,2,4-triazole-3,5-diamine]

IC50 (Table 8, formula (VI)): < 1 µM
SMILES: Cc1cc(F)ccc1-c1nnc(-n2nc(Nc3ccc4c(c3)CCC(N3CCCC3)CC4)nc2N)c2c1C1CCC2CC1 (centres unmarked) [Compound 33, 1-(4-(4-fluoro-2-methylphenyl)-5,8-ethano-5,6,7,8-tetrahydrophthalazine-1-yl)-N^3-(7-(pyrrolidin-1-yl)-6,7,8,9-tetrahydro-5H-benzo[7]annulene-2-yl)-1H-1,2,4-triazole-3,5-diamine]

IC50 (Table 4, formula (III)): < 1 µM
SMILES: Nc1nc(Nc2ccc3c(c2)CC[C@@H](NC2CCC2)CC3)nn1-c1cc(-c2ccccc2)c2c(n1)C1CCN2CC1 [Compound 38, (7S)-1-(1,4-ethano-8-phenyl-1,2,3,4-tetrahydro-1,5-naphthyridin-6-yl)-N^3-(7-(cyclobutylamino)-6,7,8,9-tetrahydro-5H-benzo[7]annulene-2-yl)-1H-1,2,4-triazole-3,5-diamine]

IC50 (Table 4, formula (III)): < 1 µM
SMILES: CCCN(CCC)[C@H]1CCc2ccc(Nc3nc(N)n(-c4cc(-c5ccccc5)c5c(n4)C4CCN5CC4)n3)cc2CC1 [Compound 39, (7S)-1-(1,4-ethano-8-phenyl-1,2,3,4-tetrahydro-1,5-naphthyridin-6-yl)-N^3-(7-(dipropylamino)-6,7,8,9-tetrahydro-5H-benzo[7]annulene-2-yl)-1H-1,2,4-triazole-3,5-diamine]

IC50 (Table 4, formula (III)): < 1 µM
SMILES: CCN(CC)[C@H]1CCc2ccc(Nc3nc(N)n(-c4cc(-c5ccccc5)c5c(n4)C4CCN5CC4)n3)cc2CC1 [Compound 35, (7S)-1-(1,4-ethano-8-phenyl-1,2,3,4-tetrahydro-1,5-naphthyridin-6-yl)-N^3-(7-(diethylamino)-6,7,8,9-tetrahydro-5H-benzo[7]annulene-2-yl)-1H-1,2,4-triazole-3,5-diamine]

IC50 (Table 8, formula (VI)): < 1 µM
SMILES: Nc1nc(Nc2ccc3c(c2)CCC(N2CCCC2)CC3)nn1-c1nnc(-c2ccncc2)c2c1C1CCC2CC1 (centres unmarked) [Compound 34, 1-(4-(pyridin-4-yl)-5,8-ethano-5,6,7,8-tetrahydrophthalazine-1-yl)-N^3-(7-(pyrrolidin-1-yl)-6,7,8,9-tetrahydro-5H-benzo[7]annulene-2-yl)-1H-1,2,4-triazole-3,5-diamine]

From US9206161B2, “Bridged bicyclic heteroaryl substituted triazoles useful as Axl inhibitors” (Rigel Pharmaceuticals, Inc., priority 2008, dated 2015)
